Assay results taken from patent US20240228512A1, “ACYCLIC OXAZEPINE COMPOUNDS COMPRISING A 6-AZA MOIETY AND USES THEREOF” (Genentech, Inc., priority 2022, published 2024).

Key:
[1] = target: recombinant human mutant KRas G12V (SOS1-mediated nucleotide exchange) (Homo sapiens (Human), UniProt P01116, G12V); assay: KRAS biochemical assay, BODIPY-GDP exchange TR-FRET (G12V-GDP HTRF)
SW620 PERK = SW620 PERK assay; assay type: cell-based; settings: Homo sapiens, SW-620, SW620, PERK
SW620 cells = assay: SW620 3D proliferation assay (CellTiter-Glo); assay type: cell-based; settings: Homo sapiens, SW-620, 168 h, SW620, 3D culture, 7 days, read-out: SW620 CTG IC50
How it was run: (§1)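 IC50 values were fitted with a 4-parameter logistic to luminescent ATP signal (CellTiter-Glo 3D) after 7-day compound exposure. Seeding was 3000 (96-well) or 1000 (384-well) cells/well in low-attachment plates with RPMI-1640, 10% FBS, 2 mM L-glutamine.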

SW480 cells = assay: SW480 CTG proliferation assay; assay type: cell-based; settings: Homo sapiens
HPAC cells = assay: HPAC 3D proliferation assay (CellTiter-Glo); assay type: cell-based; settings: Homo sapiens, 168 h, 3D culture, 7 days, read-out: HPAC CTG IC50
How it was run: as §1

H1975 cells = assay: H1975 CTG proliferation assay; assay type: cell-based; settings: Homo sapiens, NCI-H1975, H1975, CTG
[2] = target: recombinant human KRAS wild type (SOS1-mediated nucleotide exchange) (Homo sapiens (Human), UniProt P01116); assay: KRAS biochemical assay, BODIPY-GDP exchange TR-FRET (WT-GDP HTRF)
Chain of recombinant human KRAS wild type (SOS1-mediated nucleotide exchange) (P01116-2 other isoform, or with tags, fused parts or gaps): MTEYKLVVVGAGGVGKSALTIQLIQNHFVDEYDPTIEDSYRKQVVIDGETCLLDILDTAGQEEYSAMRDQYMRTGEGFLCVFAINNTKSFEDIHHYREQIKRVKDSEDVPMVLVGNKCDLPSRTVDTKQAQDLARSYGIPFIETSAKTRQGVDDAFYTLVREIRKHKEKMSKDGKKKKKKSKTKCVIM

Chain of recombinant human mutant KRas G12V (SOS1-mediated nucleotide exchange) (P01116-2 other isoform, or with tags, fused parts or gaps G12V): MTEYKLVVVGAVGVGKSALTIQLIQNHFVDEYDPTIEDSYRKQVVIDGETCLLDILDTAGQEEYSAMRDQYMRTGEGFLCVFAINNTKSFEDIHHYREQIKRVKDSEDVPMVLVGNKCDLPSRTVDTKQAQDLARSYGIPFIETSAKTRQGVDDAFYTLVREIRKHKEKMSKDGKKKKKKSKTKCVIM

SMILES	IC50 [1]	IC50 (SW620 PERK)	IC50 (SW620 cells)	IC50 (SW480 cells)	IC50 (HPAC cells)	IC50 (H1975 cells)	IC50 [2]
Cc1c(F)c(N)cc(-c2nc3c4c(nc(OC[C@@]56CCCN5C[C@]5(CC5(F)F)C6)nc4c2F)N([C@H](C)c2cncnc2N)CCO3)c1C(F)(F)F [Example 616]	0.09 nM	4.64 nM	8.46 nM	> 200 nM	50.4 nM	2.59 nM	0.195 nM
Cc1cc(N)nc(-c2nc3c4c(nc(OC[C@@]56CCCN5C[C@]5(CC5(F)F)C6)nc4c2F)N([C@H](C)c2cccnc2N)CCO3)c1C(F)(F)F [Example 635]	0.21 nM	2.15 nM	3.55 nM	> 200 nM	11.8 nM	2.54 nM	0.325 nM
